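Assay format: 96-well plates, 48-hour exposure. GI50 is the concentration that inhibits growth by half. TGI marks complete inhibition of growth.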
Legend:
Test in all cases: DTP human tumour cell line panel, 48 h; in the data active means GI50 below about 0.43 µM; inactive means the rest
TK-10 renal = tested on: TK-10 renal
HT29 colon = tested on: HT29 colon
OVCAR-8 ovarian = tested on: OVCAR-8 ovarian
A498 renal = tested on: A498 renal
HCT-15 colon = tested on: HCT-15 colon
SR leukemia = tested on: SR leukemia
SK-OV-3 ovarian = tested on: SK-OV-3 ovarian
UO-31 renal = tested on: UO-31 renal
U251 CNS = tested on: U251 CNS
T-47D breast = tested on: T-47D breast
OVCAR-3 ovarian = tested on: OVCAR-3 ovarian
NCI-H460 lung = tested on: NCI-H460 lung
HS 578T breast = tested on: HS 578T breast
786-0 renal = tested on: 786-0 renal
HOP-62 NSCLC = tested on: HOP-62 NSCLC
SK-MEL-2 melanoma = tested on: SK-MEL-2 melanoma
CAKI-1 renal = tested on: CAKI-1 renal
RXF 393 renal = tested on: RXF 393 renal
OVCAR-5 ovarian = tested on: OVCAR-5 ovarian
SW-620 colon = tested on: SW-620 colon
LOX IMVI melanoma = tested on: LOX IMVI melanoma
SF-295 CNS = tested on: SF-295 CNS
SNB-75 CNS = tested on: SNB-75 CNS
HCC-2998 colon = tested on: HCC-2998 colon
MDA-MB-231 breast = tested on: MDA-MB-231 breast
NCI/ADR-RES ovarian = tested on: NCI/ADR-RES ovarian
IGROV1 ovarian = tested on: IGROV1 ovarian
COLO 205 colon = tested on: COLO 205 colon
SF-268 CNS = tested on: SF-268 CNS
HOP-92 NSCLC = tested on: HOP-92 NSCLC
DU-145 prostate = tested on: DU-145 prostate
K-562 leukemia = tested on: K-562 leukemia
NCI-H23 lung = tested on: NCI-H23 lung
HCT-116 colon = tested on: HCT-116 colon
ACHN renal = tested on: ACHN renal
OVCAR-4 ovarian = tested on: OVCAR-4 ovarian
PC-3 prostate = tested on: PC-3 prostate
MCF7 breast = tested on: MCF7 breast
BT-549 breast = tested on: BT-549 breast
NCI-H226 lung = tested on: NCI-H226 lung
SNB-19 CNS = tested on: SNB-19 CNS
SF-539 CNS = tested on: SF-539 CNS

Brc1cccc(/C=N/Nc2nc(N/N=C/c3cccc(Br)c3)nc(N3CCOCC3)n2)c1
29.6 µM: TGI (SNB-75 CNS)
active: GI50 (A498 renal) 0.137 µM | GI50 (HCT-15 colon) 0.423 µM | GI50 (SR leukemia) 0.16 µM | GI50 (RXF 393 renal) 0.159 µM | GI50 (K-562 leukemia) 0.336 µM
66.9 µM: TGI (BT-549 breast)
58.7 µM: TGI (SNB-19 CNS)
6.47 µM: TGI (SK-MEL-2 melanoma)
4.26 µM: TGI (A498 renal)
inactive: GI50 (TK-10 renal) 8.75 µM | GI50 (HT29 colon) 0.609 µM | GI50 (OVCAR-8 ovarian) 5 µM | GI50 (SK-OV-3 ovarian) 14.7 µM | GI50 (UO-31 renal) 1.01 µM | GI50 (U251 CNS) 4.22 µM | GI50 (T-47D breast) 3.94 µM | GI50 (OVCAR-3 ovarian) 3.81 µM | GI50 (NCI-H460 lung) 3.43 µM | GI50 (HS 578T breast) 3.6 µM | GI50 (786-0 renal) 0.529 µM | GI50 (HOP-62 NSCLC) 8.07 µM | GI50 (SK-MEL-2 melanoma) 2.43 µM | GI50 (CAKI-1 renal) 3.52 µM | GI50 (OVCAR-5 ovarian) > 100 µM | GI50 (SW-620 colon) 0.825 µM | GI50 (LOX IMVI melanoma) 2.66 µM | GI50 (SF-295 CNS) 4.94 µM | GI50 (SNB-75 CNS) 4.54 µM | GI50 (HCC-2998 colon) 3.06 µM | GI50 (MDA-MB-231 breast) 3.97 µM | GI50 (NCI/ADR-RES ovarian) 3.25 µM | GI50 (IGROV1 ovarian) 2.92 µM | GI50 (COLO 205 colon) 1.24 µM | GI50 (SF-268 CNS) 8.4 µM | GI50 (HOP-92 NSCLC) 1.24 µM | GI50 (DU-145 prostate) 1.31 µM | GI50 (NCI-H23 lung) 4.5 µM | GI50 (HCT-116 colon) 0.78 µM | GI50 (ACHN renal) 2.21 µM | GI50 (OVCAR-4 ovarian) 4.89 µM | GI50 (PC-3 prostate) 2.9 µM | GI50 (MCF7 breast) 2.64 µM | GI50 (BT-549 breast) 3.54 µM | GI50 (NCI-H226 lung) 2.46 µM | GI50 (SNB-19 CNS) 12.9 µM | GI50 (SF-539 CNS) 3.83 µM
8.92 µM: TGI (HOP-92 NSCLC)
64 µM: TGI (SK-OV-3 ovarian)
55.6 µM: TGI (HOP-62 NSCLC)
2.29 µM: TGI (SR leukemia)
4.78 µM: TGI (786-0 renal)
> 100 µM: TGI (TK-10 renal) | TGI (HT29 colon) | TGI (OVCAR-8 ovarian) | TGI (HCT-15 colon) | TGI (UO-31 renal) | TGI (U251 CNS) | TGI (T-47D breast) | TGI (OVCAR-3 ovarian) | TGI (NCI-H460 lung) | TGI (HS 578T breast) | TGI (CAKI-1 renal) | TGI (OVCAR-5 ovarian) | TGI (SW-620 colon) | TGI (LOX IMVI melanoma) | TGI (SF-295 CNS) | TGI (HCC-2998 colon) | TGI (MDA-MB-231 breast) | TGI (NCI/ADR-RES ovarian) | TGI (IGROV1 ovarian) | TGI (COLO 205 colon) | TGI (SF-268 CNS) | TGI (DU-145 prostate) | TGI (K-562 leukemia) | TGI (NCI-H23 lung) | TGI (HCT-116 colon) | TGI (ACHN renal) | TGI (OVCAR-4 ovarian) | TGI (PC-3 prostate) | TGI (MCF7 breast) | TGI (SF-539 CNS)
1.95 µM: TGI (RXF 393 renal)
8.51 µM: TGI (NCI-H226 lung)
